Experimental data from PubChem BioAssay (NCI).
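Each compound was tested at five concentrations against cells in 96-well plates for 48 hours. TGI: total growth inhibition.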

Assays:
Experiment in all cases: NCI anticancer screen, dose series, 48 h
786-0 renal = tested on: 786-0 renal
SK-OV-3 ovarian = tested on: SK-OV-3 ovarian
PC-3 prostate = tested on: PC-3 prostate
OVCAR-8 ovarian = tested on: OVCAR-8 ovarian
CCRF-CEM leukemia = tested on: CCRF-CEM leukemia
HOP-62 NSCLC = tested on: HOP-62 NSCLC
SF-295 CNS = tested on: SF-295 CNS
ACHN renal = tested on: ACHN renal
NCI-H460 lung = tested on: NCI-H460 lung
SK-MEL-5 melanoma = tested on: SK-MEL-5 melanoma
RPMI-8226 leukemia = tested on: RPMI-8226 leukemia
NCI-H226 lung = tested on: NCI-H226 lung
MDA-N = tested on: MDA-N
BT-549 breast = tested on: BT-549 breast
OVCAR-5 ovarian = tested on: OVCAR-5 ovarian
MDA-MB-231 breast = tested on: MDA-MB-231 breast
SNB-75 CNS = tested on: SNB-75 CNS
K-562 leukemia = tested on: K-562 leukemia
HCC-2998 colon = tested on: HCC-2998 colon
IGROV1 ovarian = tested on: IGROV1 ovarian
MCF7 breast = tested on: MCF7 breast
LOX IMVI melanoma = tested on: LOX IMVI melanoma
NCI-H522 lung = tested on: NCI-H522 lung
U251 CNS = tested on: U251 CNS
SW-620 colon = tested on: SW-620 colon
HCT-116 colon = tested on: HCT-116 colon
SN12C renal = tested on: SN12C renal
HL-60(TB) leukemia = tested on: HL-60(TB) leukemia
COLO 205 colon = tested on: COLO 205 colon
UACC-62 melanoma = tested on: UACC-62 melanoma
M14 melanoma = tested on: M14 melanoma
OVCAR-4 ovarian = tested on: OVCAR-4 ovarian
A498 renal = tested on: A498 renal
SK-MEL-2 melanoma = tested on: SK-MEL-2 melanoma
OVCAR-3 ovarian = tested on: OVCAR-3 ovarian
T-47D breast = tested on: T-47D breast
HCT-15 colon = tested on: HCT-15 colon
SR leukemia = tested on: SR leukemia
DU-145 prostate = tested on: DU-145 prostate
RXF 393 renal = tested on: RXF 393 renal
NCI-H23 lung = tested on: NCI-H23 lung
HT29 colon = tested on: HT29 colon
HS 578T breast = tested on: HS 578T breast
UACC-257 melanoma = tested on: UACC-257 melanoma
SF-268 CNS = tested on: SF-268 CNS
EKVX NSCLC = tested on: EKVX NSCLC
HOP-92 NSCLC = tested on: HOP-92 NSCLC
TK-10 renal = tested on: TK-10 renal
A549 NSCLC = tested on: A549 NSCLC
SK-MEL-28 melanoma = tested on: SK-MEL-28 melanoma
UO-31 renal = tested on: UO-31 renal
NCI/ADR-RES ovarian = tested on: NCI/ADR-RES ovarian
CAKI-1 renal = tested on: CAKI-1 renal
SNB-19 CNS = tested on: SNB-19 CNS
KM12 colon = tested on: KM12 colon
MALME-3M melanoma = tested on: MALME-3M melanoma
MDA-MB-435 = tested on: MDA-MB-435
SF-539 CNS = tested on: SF-539 CNS
MOLT-4 leukemia = tested on: MOLT-4 leukemia

Structure (SMILES): CC(C)C1OC(/C=C/c2ccccc2)OCC1(C)C (centres undefined)
- TGI (786-0 renal): > 100 µM
- TGI (SK-OV-3 ovarian): > 100 µM
- TGI (PC-3 prostate): > 100 µM
- TGI (OVCAR-8 ovarian): > 100 µM
- TGI (CCRF-CEM leukemia): 41.8 µM
- TGI (HOP-62 NSCLC): > 100 µM
- TGI (SF-295 CNS): > 100 µM
- TGI (ACHN renal): > 100 µM
- TGI (NCI-H460 lung): 39.9 µM
- TGI (SK-MEL-5 melanoma): 37.5 µM
- TGI (RPMI-8226 leukemia): 47 µM
- TGI (NCI-H226 lung): 63 µM
- TGI (MDA-N): > 100 µM
- TGI (BT-549 breast): > 100 µM
- TGI (OVCAR-5 ovarian): > 100 µM
- TGI (MDA-MB-231 breast): 94.7 µM
- TGI (SNB-75 CNS): 78.6 µM
- TGI (K-562 leukemia): > 100 µM
- TGI (HCC-2998 colon): 38.5 µM
- TGI (IGROV1 ovarian): > 100 µM
- TGI (MCF7 breast): > 100 µM
- TGI (LOX IMVI melanoma): 36.6 µM
- TGI (NCI-H522 lung): 32.2 µM
- TGI (U251 CNS): 60.8 µM
- TGI (SW-620 colon): > 100 µM
- TGI (HCT-116 colon): 92 µM
- TGI (SN12C renal): 44 µM
- TGI (HL-60(TB) leukemia): 38.3 µM
- TGI (COLO 205 colon): 31.2 µM
- TGI (UACC-62 melanoma): > 100 µM
- TGI (M14 melanoma): > 100 µM
- TGI (OVCAR-4 ovarian): > 100 µM
- TGI (A498 renal): 63.7 µM
- TGI (SK-MEL-2 melanoma): 37.5 µM
- TGI (OVCAR-3 ovarian): 44.9 µM
- TGI (T-47D breast): > 100 µM
- TGI (HCT-15 colon): > 100 µM
- TGI (SR leukemia): > 100 µM
- TGI (DU-145 prostate): > 100 µM
- TGI (RXF 393 renal): 42.3 µM
- TGI (NCI-H23 lung): 98.9 µM
- TGI (HT29 colon): > 100 µM
- TGI (HS 578T breast): 88.7 µM
- TGI (UACC-257 melanoma): 63.6 µM
- TGI (SF-268 CNS): > 100 µM
- TGI (EKVX NSCLC): 82.3 µM
- TGI (HOP-92 NSCLC): 52.5 µM
- TGI (TK-10 renal): 80.8 µM
- TGI (A549 NSCLC): > 100 µM
- TGI (SK-MEL-28 melanoma): > 100 µM
- TGI (UO-31 renal): > 100 µM
- TGI (NCI/ADR-RES ovarian): > 100 µM
- TGI (CAKI-1 renal): > 100 µM
- TGI (SNB-19 CNS): > 100 µM
- TGI (KM12 colon): > 100 µM
- TGI (MALME-3M melanoma): 25.8 µM
- TGI (MDA-MB-435): > 100 µM

Structure (SMILES): CCc1nc(Cl)nc(Cl)c1Cl
- TGI (786-0 renal): 6.42 µM
- TGI (SK-OV-3 ovarian): 18.4 µM
- TGI (PC-3 prostate): 6.25 µM
- TGI (OVCAR-8 ovarian): 5.34 µM
- TGI (CCRF-CEM leukemia): 0.771 µM
- TGI (HOP-62 NSCLC): 21.2 µM
- TGI (SF-295 CNS): 23.1 µM
- TGI (ACHN renal): 1.5 µM
- TGI (NCI-H460 lung): 28.5 µM
- TGI (SK-MEL-5 melanoma): 7.71 µM
- TGI (NCI-H226 lung): 14.9 µM
- TGI (SF-539 CNS): 9.65 µM
- TGI (MDA-N): 15.2 µM
- TGI (BT-549 breast): 14.6 µM
- TGI (OVCAR-5 ovarian): 9.81 µM
- TGI (MDA-MB-231 breast): 13.1 µM
- TGI (SNB-75 CNS): 18.3 µM
- TGI (K-562 leukemia): 3.62 µM
- TGI (HCC-2998 colon): 2.24 µM
- TGI (IGROV1 ovarian): 13.7 µM
- TGI (MCF7 breast): 5.56 µM
- TGI (LOX IMVI melanoma): 0.394 µM
- TGI (NCI-H522 lung): 0.234 µM
- TGI (U251 CNS): 3.32 µM
- TGI (SW-620 colon): 5.17 µM
- TGI (HCT-116 colon): 4.62 µM
- TGI (SN12C renal): 6.69 µM
- TGI (HL-60(TB) leukemia): 3.59 µM
- TGI (COLO 205 colon): 14.6 µM
- TGI (UACC-62 melanoma): 19 µM
- TGI (M14 melanoma): 5.29 µM
- TGI (OVCAR-4 ovarian): 2.06 µM
- TGI (A498 renal): 25.6 µM
- TGI (OVCAR-3 ovarian): 2.08 µM
- TGI (T-47D breast): 22 µM
- TGI (HCT-15 colon): 1.88 µM
- TGI (SR leukemia): 0.444 µM
- TGI (DU-145 prostate): 23.1 µM
- TGI (RXF 393 renal): 4.37 µM
- TGI (NCI-H23 lung): 5.9 µM
- TGI (HT29 colon): 5.04 µM
- TGI (MOLT-4 leukemia): 1.68 µM
- TGI (HS 578T breast): 9.39 µM
- TGI (UACC-257 melanoma): 1.87 µM
- TGI (SF-268 CNS): 3.37 µM
- TGI (EKVX NSCLC): 38.7 µM
- TGI (HOP-92 NSCLC): 5.16 µM
- TGI (TK-10 renal): 21.2 µM
- TGI (A549 NSCLC): 9.56 µM
- TGI (SK-MEL-28 melanoma): 17.7 µM
- TGI (UO-31 renal): 0.674 µM
- TGI (NCI/ADR-RES ovarian): 9.41 µM
- TGI (CAKI-1 renal): 1.15 µM
- TGI (SNB-19 CNS): 11.3 µM
- TGI (KM12 colon): 15.5 µM
- TGI (MALME-3M melanoma): 1.57 µM
- TGI (MDA-MB-435): 6.53 µM
